Experimental data: PubChem BioAssay (NCI)
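The compound was tested at five concentrations on cells cultured in 96-well plates, with a 48-hour exposure period. TGI marks complete inhibition of growth.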

Key:
Assay in all cases: inhibition of tumour cell growth, NCI panel, 48 h
NCI-H460 lung = test system: NCI-H460 lung
ACHN renal = test system: ACHN renal
CAKI-1 renal = test system: CAKI-1 renal
MOLT-4 leukemia = test system: MOLT-4 leukemia
RXF-631 renal = test system: RXF-631 renal
IGROV1 ovarian = test system: IGROV1 ovarian
CCRF-CEM leukemia = test system: CCRF-CEM leukemia
SK-MEL-2 melanoma = test system: SK-MEL-2 melanoma
SW-620 colon = test system: SW-620 colon
EKVX NSCLC = test system: EKVX NSCLC
RPMI-8226 leukemia = test system: RPMI-8226 leukemia
OVCAR-3 ovarian = test system: OVCAR-3 ovarian
HOP-18 NSCLC = test system: HOP-18 NSCLC
HCC-2998 colon = test system: HCC-2998 colon
A549 NSCLC = test system: A549 NSCLC
SK-MEL-5 melanoma = test system: SK-MEL-5 melanoma
786-0 renal = test system: 786-0 renal
SNB-75 CNS = test system: SNB-75 CNS
OVCAR-8 ovarian = test system: OVCAR-8 ovarian
DMS 114 small cell lung = test system: DMS 114 small cell lung
SF-295 CNS = test system: SF-295 CNS
OVCAR-4 ovarian = test system: OVCAR-4 ovarian
TK-10 renal = test system: TK-10 renal
SF-268 CNS = test system: SF-268 CNS
XF 498 CNS = test system: XF 498 CNS
COLO 205 colon = test system: COLO 205 colon
HCT-116 colon = test system: HCT-116 colon
LXFL 529 NSCLC = test system: LXFL 529 NSCLC
KM20L2 colon = test system: KM20L2 colon
LOX IMVI melanoma = test system: LOX IMVI melanoma
DMS 273 small cell lung = test system: DMS 273 small cell lung
U251 CNS = test system: U251 CNS
SK-OV-3 ovarian = test system: SK-OV-3 ovarian
M19-MEL melanoma = test system: M19-MEL melanoma
HL-60(TB) leukemia = test system: HL-60(TB) leukemia
SNB-19 CNS = test system: SNB-19 CNS
NCI-H23 lung = test system: NCI-H23 lung
M14 melanoma = test system: M14 melanoma
SF-539 CNS = test system: SF-539 CNS
HCT-15 colon = test system: HCT-15 colon
HOP-92 NSCLC = test system: HOP-92 NSCLC
OVCAR-5 ovarian = test system: OVCAR-5 ovarian
SN12C renal = test system: SN12C renal
UACC-62 melanoma = test system: UACC-62 melanoma
UO-31 renal = test system: UO-31 renal
A498 renal = test system: A498 renal
MALME-3M melanoma = test system: MALME-3M melanoma
KM12 colon = test system: KM12 colon
K-562 leukemia = test system: K-562 leukemia
HT29 colon = test system: HT29 colon
SNB-78 CNS = test system: SNB-78 CNS
UACC-257 melanoma = test system: UACC-257 melanoma
RXF 393 renal = test system: RXF 393 renal
SK-MEL-28 melanoma = test system: SK-MEL-28 melanoma
HOP-62 NSCLC = test system: HOP-62 NSCLC
DLD-1 colon = test system: DLD-1 colon

In the case of `CCCCCCCCCCCCCCCC(=O)OCC1OC(n2cc(F)c(=O)[nH]c2=O)C(NC(=O)OCc2ccccc2)C(O)C1O` (stereo not given), the TGI (NCI-H460 lung) is reported as 38.9 µM, the TGI (ACHN renal) is reported as greater than 100 µM and the TGI (CAKI-1 renal) is reported as 33.8 µM. For the same compound, the TGI (MOLT-4 leukemia) was 38.3 µM, the TGI (RXF-631 renal) was 34.9 µM and the TGI (IGROV1 ovarian) was 46.6 µM. For the same compound, the TGI (CCRF-CEM leukemia) was 30 µM, the TGI (SK-MEL-2 melanoma) was 32 µM and the TGI (SW-620 colon) was 73 µM. For the same compound, the TGI (EKVX NSCLC) was 52.8 µM, the TGI (RPMI-8226 leukemia) was 39.3 µM and the TGI (OVCAR-3 ovarian) was 33.8 µM. For the same compound, the TGI (HOP-18 NSCLC) was 37.8 µM, the TGI (HCC-2998 colon) was 31.9 µM and the TGI (A549 NSCLC) was 38.5 µM. For the same compound, the TGI (SK-MEL-5 melanoma) was 36.1 µM, the TGI (786-0 renal) was 36.2 µM and the TGI (SNB-75 CNS) was 37.5 µM. It also gave a TGI (OVCAR-8 ovarian) of 37.2 µM, a TGI (DMS 114 small cell lung) of 33.4 µM and a TGI (SF-295 CNS) of 32.5 µM. It also gave a TGI (OVCAR-4 ovarian) of 42 µM, a TGI (TK-10 renal) of 43 µM and a TGI (SF-268 CNS) of 54 µM. It also gave a TGI (XF 498 CNS) of 31.1 µM, a TGI (COLO 205 colon) of 34 µM and a TGI (HCT-116 colon) of 30.4 µM. It also gave a TGI (LXFL 529 NSCLC) of 31.5 µM, a TGI (KM20L2 colon) of 41.9 µM and a TGI (LOX IMVI melanoma) of 32.5 µM. For the same compound, the TGI (DMS 273 small cell lung) was 32.4 µM, the TGI (U251 CNS) was 31.4 µM and the TGI (SK-OV-3 ovarian) was 66 µM. It also gave a TGI (M19-MEL melanoma) of 40.5 µM, a TGI (HL-60(TB) leukemia) of 43.1 µM and a TGI (SNB-19 CNS) of 32.4 µM. The TGI (NCI-H23 lung) was 43.6 µM, the TGI (M14 melanoma) was 33.1 µM and the TGI (SF-539 CNS) was 30.9 µM. For the same compound, the TGI (HCT-15 colon) was 34.4 µM, the TGI (HOP-92 NSCLC) was 31.5 µM and the TGI (OVCAR-5 ovarian) was 39.8 µM. For the same compound, the TGI (SN12C renal) was 38 µM, the TGI (UACC-62 melanoma) was 35.3 µM and the TGI (UO-31 renal) was 35.2 µM. It also gave a TGI (A498 renal) of 35.5 µM, a TGI (MALME-3M melanoma) of 9.44 µM and a TGI (KM12 colon) of 45 µM. For the same compound, the TGI (K-562 leukemia) was 31.8 µM, the TGI (HT29 colon) was 36.2 µM and the TGI (SNB-78 CNS) was 52.1 µM.
`CC1CCCP(=O)(c2ccccc2)CCC1` (stereo not given) was tested, and the TGI (NCI-H460 lung) was greater than 100 µM, the TGI (ACHN renal) was greater than 100 µM and the TGI (CAKI-1 renal) was greater than 100 µM. For the same compound, the TGI (MOLT-4 leukemia) was greater than 100 µM, the TGI (RXF-631 renal) was greater than 100 µM and the TGI (IGROV1 ovarian) was greater than 100 µM. The TGI (CCRF-CEM leukemia) was greater than 100 µM, the TGI (SK-MEL-2 melanoma) was greater than 100 µM and the TGI (SW-620 colon) was greater than 100 µM. It also gave a TGI (UACC-257 melanoma) greater than 100 µM, a TGI (EKVX NSCLC) greater than 100 µM and a TGI (RPMI-8226 leukemia) greater than 100 µM. For the same compound, the TGI (OVCAR-3 ovarian) was greater than 100 µM, the TGI (HOP-18 NSCLC) was 96.4 µM and the TGI (HCC-2998 colon) was greater than 100 µM. It also gave a TGI (RXF 393 renal) greater than 100 µM, a TGI (A549 NSCLC) greater than 100 µM and a TGI (SK-MEL-28 melanoma) greater than 100 µM. It also gave a TGI (SK-MEL-5 melanoma) greater than 100 µM, a TGI (786-0 renal) greater than 100 µM and a TGI (SNB-75 CNS) greater than 100 µM. It also gave a TGI (OVCAR-8 ovarian) greater than 100 µM, a TGI (DMS 114 small cell lung) greater than 100 µM and a TGI (SF-295 CNS) greater than 100 µM. For the same compound, the TGI (OVCAR-4 ovarian) was greater than 100 µM, the TGI (TK-10 renal) was greater than 100 µM and the TGI (SF-268 CNS) was greater than 100 µM. The TGI (XF 498 CNS) was greater than 100 µM, the TGI (COLO 205 colon) was greater than 100 µM and the TGI (LXFL 529 NSCLC) was greater than 100 µM. For the same compound, the TGI (KM20L2 colon) was greater than 100 µM, the TGI (LOX IMVI melanoma) was greater than 100 µM and the TGI (DMS 273 small cell lung) was greater than 100 µM. The TGI (U251 CNS) was greater than 100 µM, the TGI (SK-OV-3 ovarian) was greater than 100 µM and the TGI (M19-MEL melanoma) was greater than 100 µM. For the same compound, the TGI (HL-60(TB) leukemia) was greater than 100 µM, the TGI (SNB-19 CNS) was greater than 100 µM and the TGI (NCI-H23 lung) was greater than 100 µM. It also gave a TGI (M14 melanoma) greater than 100 µM, a TGI (SF-539 CNS) greater than 100 µM and a TGI (HCT-15 colon) greater than 100 µM. It also gave a TGI (OVCAR-5 ovarian) greater than 100 µM, a TGI (SN12C renal) greater than 100 µM and a TGI (UACC-62 melanoma) greater than 100 µM. The TGI (HOP-62 NSCLC) was greater than 100 µM, the TGI (UO-31 renal) was greater than 100 µM and the TGI (A498 renal) was greater than 100 µM. For the same compound, the TGI (MALME-3M melanoma) was greater than 100 µM, the TGI (KM12 colon) was greater than 100 µM and the TGI (K-562 leukemia) was greater than 100 µM. It also gave a TGI (DLD-1 colon) greater than 100 µM, a TGI (HT29 colon) greater than 100 µM and a TGI (SNB-78 CNS) greater than 100 µM.
